For orientation: EC50 means the concentration needed to bring the measured effect to its halfway point.

The target of the experiment is T1, FXR-LBD (Farnesoid X Receptor) (Homo sapiens, UniProt Q96RI1).
T1 construct: Add 5 μl of 4×FXR-LBD to 384 well assay plates; purchased
T1 sequence (Q96RI1 262-486 limits assumed): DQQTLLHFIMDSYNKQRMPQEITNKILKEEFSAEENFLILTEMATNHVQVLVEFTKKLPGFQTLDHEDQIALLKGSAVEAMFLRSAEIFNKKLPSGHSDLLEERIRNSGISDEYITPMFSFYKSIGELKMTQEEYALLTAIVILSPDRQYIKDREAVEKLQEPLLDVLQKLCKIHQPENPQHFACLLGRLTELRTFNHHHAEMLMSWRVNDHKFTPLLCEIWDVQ
In words: LanthaScreen TR-FRET Farnesoid X Receptor Coactivator Assay. In kind it is biochemical. Conditions: TR-FRET ratio 520 nm/495 nm; 10 doses, 3-fold serial dilution; GW4064 as positive control. As to the method: The compounds of the present technology may be assayed using the following procedure and will be shown to have FXR binding activity.
LanthaScreen™ TR-FRET Farnesoid X Receptor Coactivator Assay
GW4064 as a positive control
• 1. All of compounds were 3-fold serial diluted from 10 mM stock for 10 doses in DMSO. • 2. Dilute each 100× agonist serial dilution to 2× using Complete Coregulator buffer G. • 3. Transfer 10 μl of each of the 2× agonist serial dilutions to 384 well assay plates. • 4. Add 5 μl of 4×FXR-LBD to 384 well assay plates. • 5. Add 5 μl of 4× peptide/4× antibody solution to 384 well assay plates. • 6. Incubate at room temperature protected from light. • 7. Read the plate at wavelengths of 520 nm and 495 nm on Envision 2104 plate reader. • 8. Calculate the TR-FRET ratio by dividing the emission signal at 520 nm by the emission signal at 495 nm. • 9. Calculate EC50 by fitting % Activity values and log of compound concentrations to nonlinear regression (dose response−variable slope) with Graphpad 5.0.
Background: Time-resolved FRET reads energy transfer from a long-lived donor to a nearby acceptor.
Regarding `CO[C@H]1C[C@H](O[C@H]2[C@H](C)O[C@@H](O[C@@H]3/C(C)=C/C[C@@H]4C[C@@H](C[C@]5(C=C[C@H](C)[C@@H](C6CCCCC6)O5)O4)OC(=O)[C@@H]4C=C(C)C(=NO)[C@H]5OC/C(=C\C=C\[C@@H]3C)[C@]54O)C[C@@H]2OC)O[C@@H](C)[C@@H]1O` [Compound 31], the EC50 is 10 to 100 nM.
Under `CO[C@H]1C[C@H](O[C@@H]2/C(C)=C/C[C@@H]3C[C@@H](C[C@]4(C=C[C@H](C)[C@@H](C5CCCCC5)O4)O3)OC(=O)[C@@H]3C=C(C)[C@@H](O)[C@H]4OC/C(=C\C=C\[C@@H]2C)[C@]43O)O[C@@H](C)[C@@H]1O` [Compound 32] stands 101 to 300 nM; under `CO[C@H]1C[C@H](O[C@@H]2/C(C)=C/C[C@@H]3C[C@@H](C[C@]4(C=C[C@H](C)[C@@H](C5CCCCC5)O4)O3)OC(=O)[C@@H]3C=C(C)C(=NO)[C@H]4OC/C(=C\C=C\[C@@H]2C)[C@]43O)O[C@@H](C)[C@@H]1O` [Compound 33], 10 to 100 nM; under `CON=C1C(C)=C[C@H]2C(=O)O[C@H]3C[C@@H](C/C=C(\C)[C@@H](O[C@H]4C[C@H](OC)[C@@H](O)[C@H](C)O4)[C@@H](C)/C=C/C=C4\CO[C@H]1[C@@]42O)O[C@@]1(C=C[C@H](C)[C@@H](C2CCCCC2)O1)C3` [Compound 35], 301 to 1000 nM.

These data come from patent US20200031858A1, “AVERMECTIN DERIVATIVES AS FXR MODULATORS” (Hepagene Therapeutics, Inc., priority 2017, published 2020).
